Test results as given in patent US11697648B2, “Fused pyrimidine pyridinone compounds as JAK inhibitors” (THERAVANCE BIOPHARMA R&D IP, LLC, priority 2019, dated 2023).

Legend:
[1] = target: JAK3 (Homo sapiens (Human), UniProt P52333); test: Biochemical JAK3 kinase assay (LanthaScreen); details: for JAK3 (pKi)-JAK1 (pKi): selectivity JAK3 over JAK1, difference of pKi
Procedure, shortened: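 GST-JAK + GFP-STAT1 peptide, HEPES pH 7.5/MgCl2/EGTA/Brij-35 buffer; cpd preincubation 1 h RT; ATP start, 1 h RT; stop with 10 mM EDTA + 2 nM Tb-anti-pSTAT1; TR-FRET 520/495. 4-parameter IC50 → pKi (Cheng-Prusoff).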

[2] = system: Caco-2 cell monolayers; test: Caco-2 permeation assay; type: in vitro ADME; details: 5 μM, A-B direction, with Verapamil (25 μM)
Procedure, shortened: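 Compounds tested at 5 μM in duplicate across Caco-2 monolayers, apical-to-basolateral, with 25 μM verapamil to block P-gp, at 37° C., 5% CO2. Apical and basal samples taken at 0 and 120 min, analysed by LC-MS/MS; Papp (cm/sec) calculated as dQ/(dt×Area×concentration).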

[3] = system: oxazolone-induced colitis; test: Mouse model of oxazolone-induced colitis; type: in vivo, BALB/C mice
Experimental: Assay 6: Mouse Model of Oxazolone-Induced Colitis
Oxazolone-induced colitis is an experimental model that has a histological resemblance to human ulcerative colitis (Heller et al. Immunology, 2002, 17, 629-638). Adult BALB/C mice from Harlan were used in the assay. On day 1, animals were lightly anesthetized with isoflurane and the hairs between the shoulder were carefully removed before oxazolone (4%, 150 μL, 4:1 acetone: olive oil formulation) or vehicle solution was slowly applied for skin sensitization. Seven days after skin sensitization, the mice were fasted around 6 hours prior, anesthetized with ketamine/xylazine injection, and a 1 mL syringe equipped with a 3.5-F catheter, filled with oxazolone solution, was inserted carefully about 4 cm into the colon of the mouse. Following insertion, 50 μL of the oxazolone solution (0.8% in 1:1 ethanol:water formulation) was injected very slowly (over 30 sec using an injection pump) into the colon. Drug treatment (PO, QD or BID or TID) or vehicle was initiated a day prior to the oxazolone intrarectal (IR) challenge. Two-day post oxazolone intrarectal challenge, the disease was assessed by treatment-blinded experimenters for each mouse according to the criteria score: stool consistency score (0, normal; 2, loose; 4, diarrhea), gross bleeding score (0, absence; 2, blood tinged; 4, presence); Combined stool score endpoint=stool consistency score+stool blood score.
Select compounds were tested in the assay.

Chain of JAK3 (P52333 whole entry): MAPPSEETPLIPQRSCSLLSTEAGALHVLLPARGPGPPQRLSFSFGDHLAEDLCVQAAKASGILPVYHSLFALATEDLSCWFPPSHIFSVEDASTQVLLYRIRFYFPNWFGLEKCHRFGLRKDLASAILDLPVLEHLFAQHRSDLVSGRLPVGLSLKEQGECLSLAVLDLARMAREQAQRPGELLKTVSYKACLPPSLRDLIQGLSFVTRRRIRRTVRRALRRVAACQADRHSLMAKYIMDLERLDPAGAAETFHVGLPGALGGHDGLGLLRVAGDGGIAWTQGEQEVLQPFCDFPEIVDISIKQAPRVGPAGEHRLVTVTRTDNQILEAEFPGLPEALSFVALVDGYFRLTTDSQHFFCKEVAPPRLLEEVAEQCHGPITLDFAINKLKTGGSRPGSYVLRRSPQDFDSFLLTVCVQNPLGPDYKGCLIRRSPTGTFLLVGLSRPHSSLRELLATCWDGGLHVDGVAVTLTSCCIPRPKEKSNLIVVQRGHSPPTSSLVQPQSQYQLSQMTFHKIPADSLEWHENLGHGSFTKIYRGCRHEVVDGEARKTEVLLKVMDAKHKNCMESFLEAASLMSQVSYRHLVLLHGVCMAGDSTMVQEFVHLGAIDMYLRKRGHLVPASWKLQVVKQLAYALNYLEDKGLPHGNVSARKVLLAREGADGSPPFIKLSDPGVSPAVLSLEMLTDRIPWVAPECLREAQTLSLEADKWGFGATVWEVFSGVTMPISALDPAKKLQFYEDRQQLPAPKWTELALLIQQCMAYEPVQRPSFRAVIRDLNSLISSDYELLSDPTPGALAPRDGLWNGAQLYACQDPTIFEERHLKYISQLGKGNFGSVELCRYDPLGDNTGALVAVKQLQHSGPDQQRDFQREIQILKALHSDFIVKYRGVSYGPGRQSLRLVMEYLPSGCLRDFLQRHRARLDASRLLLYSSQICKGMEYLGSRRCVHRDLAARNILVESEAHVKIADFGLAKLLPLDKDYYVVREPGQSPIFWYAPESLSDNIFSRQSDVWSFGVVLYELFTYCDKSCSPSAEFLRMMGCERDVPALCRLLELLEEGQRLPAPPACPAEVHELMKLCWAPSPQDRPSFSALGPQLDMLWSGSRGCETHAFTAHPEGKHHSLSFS

Compound	JAK 3 (pKi) [1]	JAK3 (pKi)-JAK1 (pKi) [1]	Caco Kp [2]	combined stool score endpoint as compared with vehicle treated animals ([3]; dose of 1 mg/kg (PO, BID))	combined stool score endpoint as compared with vehicle treated animals ([3]; dose of 3 mg/kg (PO, BID))
C=CC(=O)N1CCN(CCn2c(=O)ccc3cnc(Nc4ccc(N5CCN(C)CC5)cc4)nc32)CC1 [Example 1, 8-(2-(4-acryloylpiperazin-1-yl)ethyl)-2-((4-(4-methylpiperazin-1-yl)phenyl)amino)pyrido[2,3-d]pyrimidin-7(8H)-one]	B (B represents pKi value between 9 and 10 (Ki between 1 nM and 0.1 nM))	A (A represents a value of 3 or above)	B (B represents a value between 5×10^−6 and 10×10^−6 cm/sec)	statistically significant decrease	statistically significant decrease
C=CC(=O)N1CC(CCn2c(=O)ccc3cnc(Nc4ccc(N5CCN(C(C)=O)CC5)cc4)nc32)C1 [Example 2, 2-((4-(4-acetylpiperazin-1-yl)phenyl)amino)-8-(2-(1-acryloylazetidin-3-yl)ethyl)pyrido[2,3-d]pyrimidin-7(8H)-one]	A (A represents a pKi value≥10 (Ki≤0.1 nM))	A (A represents a value of 3 or above)	A (A represents a value below 5×10^−6 cm/sec)	statistically significant decrease	
C=CC(=O)N1CCN(CCn2c(=O)ccc3cnc(Nc4ccc(N5CCN(C(=O)CCSC)CC5)cc4)nc32)CC1 [Example 4, 8-(2-(4-acryloylpiperazin-1-yl)ethyl)-2-((4-(4-(3-(methylthio)propanoyl)piperazin-1-yl)phenyl)amino)pyrido[2,3-d]pyrimidin-7(8H)-one]	B (B represents pKi value between 9 and 10 (Ki between 1 nM and 0.1 nM))	A (A represents a value of 3 or above)	A (A represents a value below 5×10^−6 cm/sec)	statistically significant decrease	
C=CC(=O)N1CC(CCn2c(=O)ccc3cnc(Nc4cccc(CN5CCN(C(=O)N(C)C)CC5)c4)nc32)C1 [Example 5, 4-(3-((8-(2-(1-acryloylazetidin-3-yl)ethyl)-7-oxo-7,8-dihydropyrido[2,3-d]pyrimidin-2-yl)amino)benzyl)-N,N-dimethylpiperazine-1-carboxamide]	A (A represents a pKi value≥10 (Ki≤0.1 nM))	A (A represents a value of 3 or above)	A (A represents a value below 5×10^−6 cm/sec)	statistically significant decrease	statistically significant decrease
C=CC(=O)N1CC(CCn2c(=O)ccc3cnc(Nc4cccc(N5CCN(C(=O)CCSC)CC5)c4)nc32)C1 [Example 7, 8-(2-(1-acryloylazetidin-3-yl)ethyl)-2-((3-(4-(3-(methylthio)propanoyl)piperazin-1-yl)phenyl)amino)pyrido[2,3-d]pyrimidin-7(8H)-one]	B (B represents pKi value between 9 and 10 (Ki between 1 nM and 0.1 nM))	A (A represents a value of 3 or above)	B (B represents a value between 5×10^−6 and 10×10^−6 cm/sec)	statistically significant decrease	
C=CC(=O)N1CCN(CCn2c(=O)ccc3cnc(Nc4cnn(C)c4)nc32)[C@@H](CC)C1 [Example 12, (S)-8-(2-(4-acryloyl-2-ethylpiperazin-1-yl)ethyl)-2-((1-methyl-1H-pyrazol-4-yl)amino)pyrido[2,3-d]pyrimidin-7(8H)-one]	B (B represents pKi value between 9 and 10 (Ki between 1 nM and 0.1 nM))	A (A represents a value of 3 or above)	B (B represents a value between 5×10^−6 and 10×10^−6 cm/sec)	statistically significant decrease	
C=CC(=O)N1CC(CCn2c(=O)ccc3cnc(Nc4ccc(N5CCN(C(=O)CSC)CC5)cc4)nc32)C1 [Example 13, 8-(2-(1-acryloylazetidin-3-yl)ethyl)-2-((4-(4-(2-(methylthio)acetyl)piperazin-1-yl)phenyl)amino)pyrido[2,3-d]pyrimidin-7(8H)-one]	B (B represents pKi value between 9 and 10 (Ki between 1 nM and 0.1 nM))	A (A represents a value of 3 or above)	A (A represents a value below 5×10^−6 cm/sec)	statistically significant decrease	statistically significant decrease
